Data on 58 compounds can be found in patent US7781439B2, “Pyrazolopyrimidines” (Bayer CropScience AG, priority 2005, dated 2010).

Marks after values point to notes of the source that are not given here.

The first data set in a line: log P determination. Type of data set: physicochemical. To be noted: EEC Directive 79/831 Annex V. A8 by HPLC (gradient method, acetonitrile/0.1% aqueous phosphoric acid).
`CC(C)C(C)Nc1c(-c2c(Cl)cc(OC(F)(F)F)cc2Cl)c(Cl)nc2c(C(=O)NS(C)(=O)=O)cnn12` (racemic) [compound 1198] came in with a log p of 4.85.

The data set is the same for the next values; noted with them: HPLC, gradient method, acetonitrile/0.1% aqueous phosphoric acid (EEC Directive 79/831 Annex V. A8).
In turn, `CNC(=O)NC(=O)c1cnn2c(N[C@H](C)C(C)C)c(-c3ccc(F)cc3C)c(Cl)nc12` [Example 1178] showed a log p of 4.42.

`Cc1cc(F)ccc1-c1c(Cl)nc2c(C(=O)Nc3ncccn3)cnn2c1NC(C)C(C)C` (stereo not shown) [compound 1179] showed a log p of 6.61.

Still in this data set, the particulars now being: intermediates of formula drawing 23, table.
On to `COC(=O)c1cnn2c(NC(C)C(C)C)c(-c3c(F)cc(F)cc3F)c(Cl)nc12` (stereo not shown), for which the “log P” value was 4.05.

On to `COC(=O)c1cnn2c(NC(C)C(C)(C)C)c(-c3c(F)cc(F)cc3F)c(Cl)nc12` (stereo not shown), for which the “log P” value was determined as 4.93.

Regarding `COC(=O)c1cnn2c(N3CCC(C)CC3)c(-c3c(F)cccc3Cl)c(Cl)nc12` [(CH2—CH2—CHCH3—CH2—CH2), 2-Cl-6-F-phenyl], the “log P” value worked out at 4.61.

`COC(=O)c1cnn2c(NC(C)C(F)(F)F)c(-c3c(F)cc(F)cc3F)c(Cl)nc12` (stereo not shown) [CH(CH3)(CF3), H, 2,4,6-trifluorophenyl]: the “log P” value amounted to 3.53.

In the case of `COC(=O)c1cnn2c(NC(C)C(F)(F)F)c(-c3ccc(F)cc3Cl)c(Cl)nc12` (stereo not shown) [CH(CH3)(CF3), H, 2-Cl-4-F-phenyl], the “log P” value is 3.75.

For `COC(=O)c1cnn2c(NC(C)C(C)(C)C)c(-c3ccc(F)cc3Cl)c(Cl)nc12` (stereo not shown) [CH(CH3)—C(CH3)3, H, 2-Cl-4-F-phenyl], the “log P” value came to 4.68.

Regarding `COC(=O)c1cnn2c(NC(C)C(C)(C)C)c(-c3c(F)cccc3Cl)c(Cl)nc12` (stereo not shown) [CH(CH3)—C(CH3)3, H, 2-Cl-6-F-phenyl], the log partition coefficient (log P) came to 4.51. The log P values of the last two compounds are within 0.2 log units of each other.

As to `COC(=O)c1cnn2c(NC(C)C(C)(C)C)c(-c3ccccc3Cl)c(Cl)nc12` (stereo not shown) [CH(CH3)—C(CH3)3, H, 2-Cl-phenyl], the “log P” value was 4.61.

On to `COC(=O)c1cnn2c(NC(C)C(C)(C)C)c(-c3ncncc3F)c(Cl)nc12` (stereo not shown) [CH(CH3)—C(CH3)3, H, 5-F-pyrimidin-4-yl], for which the “log P” value was determined as 3.15.

In the case of `COC(=O)c1cnn2c(NC(C)C(C)C)c(-c3ccc(F)cc3Cl)c(Cl)nc12` (stereo not shown) [CH(CH3)—CH(CH3)2, H, 2-Cl-4-F-phenyl], the “log P” value was found to be 4.31.

For `COC(=O)c1cnn2c(NC(C)C(C)C)c(-c3c(F)cccc3Cl)c(Cl)nc12` (stereo not shown) [CH(CH3)—CH(CH3)2, H, 2-Cl-6-F-phenyl], the “log P” value is on record as 4.12.

For `COC(=O)c1cnn2c(NC(C)C(C)C)c(-c3ccccc3Cl)c(Cl)nc12` (stereo not shown) [CH(CH3)—CH(CH3)2, H, 2-Cl-phenyl], the “log P” value was found to be 4.21.

Still in this data set, the particulars now being: starting materials and intermediates, log P / log P*; read-out: log P.
Take `CC(C)Nc1c(-c2ccc(Cl)cc2Cl)c(Cl)nc2c(C(=O)O)cnn12` [5-Chloro-6-(2,4-dichlorophenyl)-7-isopropylaminopyrazolo[1,5-a]pyrimidine-3-carboxylic acid]: the log p amounted to 3.3.

Regarding `COC(=O)c1cnn2c(Cl)c(-c3ccc(Cl)cc3Cl)c(Cl)nc12` [Methyl 5,7-dichloro-6-(2,4-dichlorophenyl)pyrazolo[1,5-a]pyrimidine-3-carboxylate], the log p turned out to be 3.86.

`COC(=O)c1cnn2c(NC(C)C)c(-c3ccc(Cl)cc3Cl)c(Cl)nc12` [Methyl 5-chloro-6-(2,4-dichlorophenyl)-7-isopropylaminopyrazolo[1,5-a]pyrimidine-3-carboxylate]: the log p worked out at 4.07.

On to `COC(=O)c1cnn2c(O)c(-c3ccc(Cl)cc3Cl)c(O)nc12` [Methyl 6-(2,4-dichlorophenyl)-5,7-dihydroxypyrazolo[1,5-a]pyrimidine-3-carboxylate], for which the log p was 1.21.

The data set is the same for the next values; noted with them: values marked **; EEC Directive 79/831 Annex V.A8, HPLC gradient method, acetonitrile/0.1% aqueous formic acid.
Regarding `Cc1cc(F)c(-c2c(Cl)nc3c(C(=O)NS(C)(=O)=O)cnn3c2N[C@H](C)C(C)(C)C)c(F)c1` [compound 51], the log p is 4.38**.

As to `CC(Nc1c(-c2ccccc2)c(Cl)nc2c(C(=O)Nc3ccon3)cnn12)C(C)(C)C` (stereo not shown) [compound 71], the log p was 4.88**.

In the case of `CC(C)[C@@H](C)Nc1c(-c2ccc(Cl)cc2Cl)c(Cl)nc2c(C(=O)NS(=O)(=O)C(F)(F)F)cnn12` [compound 206], the log p is 3.87**.

With `CCS(=O)(=O)NC(=O)c1cnn2c(N[C@H](C)C(C)C)c(-c3ccc(Cl)cc3Cl)c(Cl)nc12` [compound 208], the log p is 4.88**.

Regarding `Cc1cc(F)c(-c2c(Cl)nc3c(C(=O)NS(C)(=O)=O)cnn3c2N[C@H](C)C(C)C)c(F)c1` [compound 219], the log p was 4.08**.

Still in this data set, the particulars now being: values marked *; HPLC, gradient method, acetonitrile/0.1% aqueous phosphoric acid, EEC Directive 79/831 Annex V. A8.
Take `CC(C)Nc1c(-c2ccc(F)cc2Cl)c(Cl)nc2c(C(=O)NS(C)(=O)=O)cnn12` [Example 351]: the log p is listed as 3.57*.

For the compound `CC(C)Nc1c(-c2ccccc2Cl)c(Cl)nc2c(C(=O)NS(C)(=O)=O)cnn12` [Example 357], the log p is on record as 3.44*.

As for `CC(C)Nc1c(-c2c(F)cc(Cl)cc2F)c(Cl)nc2c(C(=O)NS(C)(=O)=O)cnn12` [Example 381], the log p was 3.68*.

`CC(C)CNc1c(-c2c(F)cc(F)cc2F)c(Cl)nc2c(C(=O)NS(C)(=O)=O)cnn12` [Example 429]: the log p is recorded as 3.59*.

On to `CC(C)CNc1c(-c2ccc(F)cc2Cl)c(Cl)nc2c(C(=O)NS(C)(=O)=O)cnn12` [Example 435], for which the log p is given as 3.82*.

Take `CC(C)CNc1c(-c2ccccc2Cl)c(Cl)nc2c(C(=O)NS(C)(=O)=O)cnn12` [Example 441]: the log p is on record as 3.78*.

On to `CC(C)CNc1c(-c2ccc(Cl)cc2Cl)c(Cl)nc2c(C(=O)NS(C)(=O)=O)cnn12` [Example 459], for which the log p is on record as 4.26*.

As for `CC(C)CNc1c(-c2c(F)cc(Cl)cc2F)c(Cl)nc2c(C(=O)NS(C)(=O)=O)cnn12` [Example 465], the log p is 3.97*.

`CC(C)(C)CNc1c(-c2c(F)cccc2Cl)c(Cl)nc2c(C(=O)NS(C)(=O)=O)cnn12` [Example 507]: the log p is 4.04*.

On to `CC(C)(C)CNc1c(-c2c(F)cc(F)cc2F)c(Cl)nc2c(C(=O)NS(C)(=O)=O)cnn12` [Example 513], for which the log p was 3.9*.

As for `CC(C)(C)CNc1c(-c2ccc(F)cc2Cl)c(Cl)nc2c(C(=O)NS(C)(=O)=O)cnn12` [Example 519], the log p is 4.19*.

On to `CC(C)(C)CNc1c(-c2ccccc2Cl)c(Cl)nc2c(C(=O)NS(C)(=O)=O)cnn12` [Example 525], for which the log p is on record as 4.17*.

As for `CC(C)(C)CNc1c(-c2ccc(Cl)cc2Cl)c(Cl)nc2c(C(=O)NS(C)(=O)=O)cnn12` [Example 543], the log p was 4.63*.

As for `CC(C)(C)CNc1c(-c2c(F)cc(Cl)cc2F)c(Cl)nc2c(C(=O)NS(C)(=O)=O)cnn12` [Example 549], the log p is recorded as 4.31*.

`CC(C)Nc1c(-c2ccc(Cl)cc2Cl)c(Cl)nc2c(C(=O)NS(C)(=O)=O)cnn12` [compound 375] registered a chromatographic logP of 3.91.

Staying with this data set, now noted: values marked *; no footnote carries the single asterisk; general footnote: HPLC gradient method, acetonitrile/0.1% aqueous phosphoric acid.
For `C[C@@H](Nc1c(-c2c(F)cccc2Cl)c(Cl)nc2c(C(=O)NS(C)(=O)=O)cnn12)C(C)(C)C` [Example 3], the log p is listed as 4.19*.

As to `C[C@@H](Nc1c(-c2ccccc2Cl)c(Cl)nc2c(C(=O)NS(C)(=O)=O)cnn12)C(C)(C)C` [Example 21], the log p is given as 4.36*.

Take `C[C@@H](Nc1c(-c2ccc(Cl)cc2Cl)c(Cl)nc2c(C(=O)NS(C)(=O)=O)cnn12)C(C)(C)C` [Example 39]: the log p is reported as 4.89*.

`C[C@@H](Nc1c(-c2c(F)cc(Cl)cc2F)c(Cl)nc2c(C(=O)NS(C)(=O)=O)cnn12)C(C)(C)C` [Example 45]: the log p is given as 4.55*.

On to `CC(C)[C@@H](C)Nc1c(-c2c(F)cccc2Cl)c(Cl)nc2c(C(=O)NS(C)(=O)=O)cnn12` [Example 171], for which the log p is reported as 3.9*.

For the compound `CC(C)[C@@H](C)Nc1c(-c2ccccc2Cl)c(Cl)nc2c(C(=O)NS(C)(=O)=O)cnn12` [Example 189], the log p is listed as 4.01*.

Turning to `CC(C)[C@@H](C)Nc1c(-c2c(F)cc(F)cc2Cl)c(Cl)nc2c(C(=O)NS(C)(=O)=O)cnn12` [Example 201], the log p was 4.05*.

Consider `CC(C)[C@@H](C)Nc1c(-c2ccc(Cl)cc2Cl)c(Cl)nc2c(C(=O)NS(C)(=O)=O)cnn12` [Example 207], for which the log p is on record as 4.55*.

For `CC(C)[C@@H](C)Nc1c(-c2c(F)cc(Cl)cc2F)c(Cl)nc2c(C(=O)NS(C)(=O)=O)cnn12` [Example 213], the log p is reported as 4.24*.

For `CC1CCN(c2c(-c3c(F)cccc3Cl)c(Cl)nc3c(C(=O)NS(C)(=O)=O)cnn23)CC1` [Example 255], the log p is given as 4.2*.

In the case of `CC1CCN(c2c(-c3c(F)cc(F)cc3F)c(Cl)nc3c(C(=O)NS(C)(=O)=O)cnn23)CC1` [Example 261], the log p was 4.07*.

Turning to `CC1CCN(c2c(-c3c(F)cc(F)cc3Cl)c(Cl)nc3c(C(=O)NS(C)(=O)=O)cnn23)CC1` [Example 285], the log p is 4.34*.

The data set is the same for the next values; noted with them: values printed without asterisk; EEC Directive 79/831 Annex V. A8, HPLC gradient method, acetonitrile/0.1% aqueous phosphoric acid (general footnote).
As to `C[C@@H](Nc1c(-c2c(F)cc(F)cc2F)c(Cl)nc2c(C(=O)NS(C)(=O)=O)cnn12)C(C)(C)C` [Example 9], the log p is reported as 4.16.

The compound `C[C@@H](Nc1c(-c2ccc(F)cc2Cl)c(Cl)nc2c(C(=O)NS(=O)(=O)C(F)(F)F)cnn12)C(C)(C)C` [Example 14] showed a log p of 3.77.

Compound `C[C@@H](Nc1c(-c2ccc(F)cc2Cl)c(Cl)nc2c(C(=O)NS(C)(=O)=O)cnn12)C(C)(C)C` [Example 15] displayed a log p of 4.44.

For the compound `C[C@@H](Nc1c(-c2c(F)cc(F)cc2Cl)c(Cl)nc2c(C(=O)NS(C)(=O)=O)cnn12)C(C)(C)C` [Example 33], the log p came to 4.38.

Take `C[C@@H](Nc1c(-c2ccc(Cl)cc2Cl)c(Cl)nc2c(C(=O)NS(=O)(=O)C(F)(F)F)cnn12)C(C)(C)C` [Example 38]: the log p was found to be 3.93.

`C[C@H](Nc1c(-c2ccc(Cl)cc2Cl)c(Cl)nc2c(C(=O)NS(C)(=O)=O)cnn12)C(F)(F)F` [Example 123] came in with a log p of 3.99.

For the compound `CC(C)[C@@H](C)Nc1c(-c2ccc(F)cc2Cl)c(Cl)nc2c(C(=O)NS(C)(=O)=O)cnn12` [Example 183], the log p turned out to be 4.18.
